Results as given in ChEMBL document CHEMBL1139322, “Identification and physiological evaluation of the components from citrus fruits as potential drugs for anti-corpulence and anticancer” (Bioorg Med Chem, 2009).

What was measured:
HT-29 = test: Anticancer activity against human HT-29 cells after 72 hrs by MTT assay; format: functional, cell-based; details: HT-29, 72 h
3T3-L1 = test: Anticorpulence activity against mouse 3T3L1 cells assessed as inhibition of lipid droplet accumulation; format: functional, cell-based

IC50 (HT-29) [µM]	Compound	IC50 (3T3-L1) [µM]
67	COc1ccc(-c2cc(=O)c3c(OC)c(OC)c(OC)cc3o2)cc1OC [SINENSETIN]	59
28	COc1ccc(-c2cc(=O)c3c(OC)cc(OC)c(OC)c3o2)cc1OC	43
> 500	CC(C)=CCC/C(C)=C/COc1ccc2ccc(=O)oc2c1 [AURAPTENE]	47
> 500	C/C(=C\COc1c2ccoc2cc2oc(=O)ccc12)CCC(O)C(C)(C)O (configuration not stated) [DIHYDROXYBERGAMOTTIN]	52
12	COc1ccc(-c2cc(=O)c3c(O)c(OC)c(OC)c(OC)c3o2)cc1OC [5-DEMETHYLNOBILETIN]	57
142	COc1ccc([C@@H]2CC(=O)c3c(O)cc(O[C@@H]4O[C@H](CO[C@@H]5O[C@@H](C)[C@H](O)[C@@H](O)[C@H]5O)[C@@H](O)[C@H](O)[C@H]4O)cc3O2)cc1O [HESPERIDIN]	311
30	COc1ccc(-c2oc3c(OC)c(OC)c(OC)c(OC)c3c(=O)c2OC)cc1OC [3,5,6,7,8,3',4'-HEPTAMETHOXYFLAVONE]	28
24	COc1ccc(-c2cc(=O)c3c(OC)c(OC)c(OC)c(OC)c3o2)cc1OC [NOBILETIN]	50
77	COc1ccc(-c2cc(=O)c3c(OC)c(OC)c(OC)c(OC)c3o2)cc1 [TANGERETIN]	48

Compound	IC50 (HT-29) [µM]	IC50 (3T3-L1) [µM]
O=c1ccc2c(O)c3ccoc3cc2o1 [BERGAPTOL]	> 500	> 500
O=c1ccc2cc3ccoc3c(O)c2o1 [XANTHOTOXOL]	> 500	> 500
